Assay results published in patent publication US20100160219A1, “Novel Polypeptides Inducing Dendritic Cell Migration, as Well as Medicines and Pharmaceutical Compositions Containing Same” (priority 2006, published 2010).

Assays:
[1] = test system: Langerhans cells and dendritic cells; test: In vivo migration-inducing assay in mice (ear application, auricular lymph nodes); conditions: mouse, 5 μl of 25 mg/ml in DMSO on left ear, 24 hours
Procedure: The peptide of SEQ ID NO.16 was also tested in vivo in mice in a migration-inducing assay. In order to do this, a population of mice was used in which the EGFP gene is introduced in front of the gene for Langerin, which makes Langerhans cells naturally fluorescent. The gene encoding CCR6 is also disrupted in these mice but normal numbers of Langerhans cells are present in the epidermis. These mice are obtained by crossing two murine strains: the Langerin DTR EGFP line (Kissenpfennig A, et al. in Trends Immunol. 2006 March; 27(3):132-9. Immunity. 2005 May; 22(5):643-54) maintained at the CNRS centre for distribution, typing and archiving at Orleans, France, and subsequently available from the European Mouse Mutant Archive (EMMA, GSF National Research Centre for Environment and Health, Institute of Experimental Genetics, Ingolstädter Landstrasse 1, D-85764 Neuherberg, Munich, Germany, www.emmanet.org) under the identification number EM:01822, and the CCR6 knockout line, published by Cook et al. in Immunity, 2000, 12: 495-503 and by Lukrs et al. in J. Exp. Med., 2001, 194, 551-555.
The peptide of SEQ ID NO.16 is prepared in DMSO at a concentration of 25 mg/ml. […] The number of (naturally fluorescent) Langerhans cells is counted and the total number of dendritic cells identified by labelling with an anti-CD11c antibody.

[2] = test system: dendritic cells; test: In vitro assay of dendritic cell migration; assay type: cell-based; conditions: cells incubated 24 hours with the fraction or polypeptide, then migration towards MIP-3β; ESAs at final dilution 1:20; index relative to untreated control
Procedure: The migration assay involves preliminary incubation of dendritic cells with the polypeptide or fraction to be tested, and 24 hours later the cells are washed and loaded onto the upper part of a migration chamber, the lower part containing the chemokine MIP3-β. The cells that have migrated from the upper compartment to the lower compartment are counted, and migration is quantified by determining the percentage they represent of the number of cells that were initially loaded into the upper chamber. The activity of a polypeptide corresponds to the percentage of cells that have migrated.
After 4 to 6 days of differentiation, the cells obtained are frozen in liquid nitrogen and can be stored for several years.
The dendritic cells are thawed and cultured in RPMI medium with 5% FCS, gentamicin, GM-CSF and TNFα to obtain interstitial dendritic cells. […] The cells are counted 48 hours later and 300,000 cells are placed in each Falcon culture tube in a volume of 300 μl. […] After 24 hours, the tubes are recovered, and the cells are counted and resuspended in the culture medium with 1% bovine serum albumin. • 6. […]
After 24 hours, the inserts are removed and the cells that crossed them and are at the bottom of the wells are recovered and counted. The results are expressed as the percentage of cells relative to the number originally placed in the insert. […]

Substance | number of dendritic cells (CD11c) and Langerhans cells in auricular lymph nodes, treated side vs DMSO side [1] | migration of dendritic cells (migration-inducing activity, migration index) [2]
DTGSGGDDSEGAWGGEQQQVQQHGQSEDR (Amino acids 30-58 of the sequence of GRA5 protein from PRU strain of toxoplasma gondii) [SEQ ID NO.16, fragment corresponding to amino acids 30 to 58 of the GRA5-PRU protein, prepared by peptide synthesis] | induces the migration of these cells in vivo | –
glutathione S-transferase [GST, reference compound] | – | no activity
